Consider two molecules from US20260232679A1, “PHARMACEUTICAL COMPOSITION FOR TREATING TUMORS” (Eisai R&D Management Co., Ltd., priority 2023, published 2026).

For experiment [1], the system named is human colorectal cancer cell line Colo205 cells. As to the kind of experiment: Antitumor effect in transplantation model nude mouse with human colorectal cancer cell line Colo205 cells (Example 1). It counts as in vivo. Conditions: 14 days; for enhancement in antitumor effect (tumor volume) by combined use with Trametinib: combined with Trametinib 0.3 mg/kg p.o., formula (I) 12.5 or 25 mg/kg p.o., ICG001 100 mg/kg i.p., FIGS. 1-3. The procedure:
Human colorectal cancer-derived cell line Colo205 cells (supplied by ATCC) were suspended in Hanks' Balanced Salt Solution (HBSS) (manufactured by FUJIFILM Wako Chemicals) at 5× 10^7 cells/mL. 0.1 mL of the obtained cell suspension was transplanted subcutaneously to a right frank of 6-week nude mice (CAnN.Cg-Foxn1 nu/CrlCrlj, manufactured by Charles River Laboratories Japan, Inc.). Ten days after the transplantation, a major axis and a minor axis of a tumor generated in each mouse were measured with a digimatic caliper (manufactured by Mitutoyo Corp.), and the mice were divided into groups each including six mice such that an average tumor volume was approximately equal. The tumor volume was calculated according to the following formula.
From ten days after the transplantation, the compound represented by formula (I) (12.5 mg/kg or 25 mg/kg, once a day, 14 days, orally administered), Trametinib (0.3 mg/kg, once a day, 14 days, orally administered), and ICG001 (100 mg/kg, once a day, 14 days, intraperitoneally administered) were administered singly or in combination to the mice in a single administration group or a combined administration group. Note that any one of the above agents was not administered to a control group.
Note that, at the time of administration, the compound represented by formula (I) was dissolved in 0.1 M hydrochloric acid at 1.25 mg/mL or 2.50 mg/mL, Trametinib (manufactured by Amadis Chemical) was dissolved in distilled water (pH 8.0) (manufactured by Otsuka Pharmaceutical Co., Ltd.) containing 0.5 w/v % of hydroxypropyl methyl cellulose (manufactured by FUJIFILM Wako Chemicals) and 0.2 w/v % of Tween80 (manufactured by Sigma) at 0.03 mg/mL, and ICG001 (manufactured by WuXi App Tec) was dissolved in physiological saline (manufactured by Otsuka Pharmaceutical Co., Ltd.) containing 3.5 w/v % of dimethylsulfoxide (manufactured by Wako Pure Chemical Industries, Ltd.) and 6.5 w/v % of Tween80 at 10 mg/mL.
The administration start day was defined as the first day, and a major axis and a minor axis of a tumor generated in each mouse were measured on the fifth day, the eighth day, the twelfth day, and the fifteenth day, and a tumor volume was calculated by a similar method to the above-described method. FIG. 1 illustrates a transition of the tumor volume in a case where 12.5 mg/kg of the compound represented by formula (I) and 0.3 mg/kg of Trametinib were administered singly or in combination. FIG. 2 illustrates a transition of the tumor volume in a case where 25.0 mg/kg of the compound represented by formula (I) and 0.3 mg/kg of Trametinib were administered singly or in combination. FIG. 3 illustrates a transition of the tumor volume in a case where 100 mg/kg of ICG001 and 0.3 mg/kg of Trametinib were administered singly or in combination. […]

The subject of experiment [2] is patient-derived colorectal cancer organoid. The conditions noted are these: PDX model mouse, ICG001 + Trametinib; cited from earlier work.
In experiment [3] the test system is human colorectal cancer cell line HT-29 (BRAF V600E-mutant). Conditions: HT-29 subcutaneous mouse model, cited from earlier work.
In experiment [4] the test system is human colorectal cancer cell line SW1463 cells. Put plainly: Antitumor effect in transplantation model nude mouse with human colorectal cancer cell line SW1463 cells (Example 2). Conditions: formula (I) 25.0 mg/kg + Trametinib 0.3 mg/kg + Adagrasib 10 mg/kg, p.o. once a day, 14 days. It counts as in vivo. How it is done:
(§1) The tumor volume was calculated according to the following formula.

Experiment [5] concerns human colorectal cancer cell line Colo205 cells. As to the kind of experiment: Antitumor effect in transplantation model nude mouse with human colorectal cancer cell line Colo205 cells (Example 3). In kind it is in vivo. Conditions: p.o. once a day, 14 days. How it is done:
as §1

Experiment [6] concerns human non-small cell lung cancer cell line NCI-H358 cells. As to the kind of experiment: Antitumor effect in transplantation model nude mouse with human non-small cell lung cancer cell line NCI-H358 cells (Example 4). It counts as in vivo. The conditions noted are these: p.o. once a day, 14 days. How it is done:
as §1

Experiment [7] relates to human melanoma cell line A375 cells. Put plainly: Antitumor effect in transplantation model nude mouse with human melanoma cell line A375 cells (Example 5). In kind it is in vivo. Conditions: p.o. once a day, 14 days. The procedure:
as §1

[8] abbreviates: formula (I) 25 mg/kg + Trametinib 0.3 mg/kg, FIG. 7.
Where [9] appears, read: formula (I) 25.0 mg/kg + Trametinib 0.3 mg/kg + Adagrasib 3 mg/kg, FIG. 12.
[10] abbreviates: formula (I) 25 mg/kg + Trametinib 0.3 mg/kg, FIG. 10.
Where [11] appears, read: formula (I) 25 mg/kg + Trametinib 0.3 mg/kg, FIG. 13.

In the case of `O=C1[C@H](Cc2ccc(O)cc2)N2C(=O)CCN(C(=O)NCc3ccccc3)[C@H]2CN1Cc1cccc2ccccc12` [ICG001], the “enhancement in antitumor effect (tumor volume) by combined use with Trametinib” value in experiment [1] (once a day) was “remarkable enhancement in antitumor effect was not observed”. For the same molecule, the “antitumor effect, in combination with Trametinib compared to the single administration” value in experiment [2] is “antitumor effect is enhanced”. Further, the “antitumor effect, in combination with both Vemurafenib and Trametinib compared to the single administration” value in experiment [3] (ICG001 + Vemurafenib + Trametinib) is on record as “antitumor effect is enhanced”. Moreover, the “antitumor effect, in combination with Vemurafenib compared to the single administration” value in experiment [3] (ICG001 + Vemurafenib) was “antitumor effect is enhanced”.
In the case of `C=CCN1CC(=O)N2[C@@H](Cc3ccc(O)cc3F)C(=O)N(Cc3cccc(N4CC(N5CCN(CC)CC5)C4)n3)C[C@@H]2N1C(=O)NCc1ccccc1` [compound represented by formula (I), (6S,9aS)—N-benzyl-8-({6-[3-(4-ethylpiperazin-1-yl)azetidin-1-yl]pyridin-2-yl}methyl)-6-(2-fluoro-4-hydroxybenzyl)-4,7-dioxo-2-(prop-2-en-1-yl)hexahydro-2H-pyrazino[2,1-c][1,2,4]triazine-1(6H)-carboxamide], the “enhancement in antitumor effect (tumor volume) by combined use with Trametinib” value in experiment [1] (once a day), in experiment [5] (setting [8]), in experiment [6] (setting [10]) and in experiment [7] (setting [11]) was “remarkable enhancement in antitumor effect” throughout. Further, the “tumor proliferation, combined use with Trametinib compared with formula (I) or Trametinib administered singly” value in experiment [1] (formula (I) 12.5 or 25 mg/kg p.o. + Trametinib 0.3 mg/kg p.o., once a day, FIGS. 1 and 2) was “inhibited tumor proliferation in a statistically significant manner”; in experiment [5] (setting [8]), “inhibited tumor proliferation in a statistically significant manner”; in experiment [7] (setting [11]), “inhibited tumor proliferation in a statistically significant manner”. Besides, the “tumor proliferation, combined administration with Trametinib compared with combined administration of ICG001 and Trametinib” value in experiment [1] (formula (I) 12.5 or 25 mg/kg p.o. + Trametinib 0.3 mg/kg vs ICG001 100 mg/kg i.p. + Trametinib 0.3 mg/kg, FIG. 4) was “inhibited tumor proliferation in a statistically significant manner”. Besides, the “tumor proliferation, three-agent combination with Trametinib and Adagrasib compared with formula (I) singly or Trametinib + Adagrasib” value was “inhibited tumor proliferation in a statistically significant manner” in experiment [4] (FIG. 5) and “inhibited tumor proliferation in a statistically significant manner” in experiment [6] (formula (I) 25.0 mg/kg + Trametinib 0.3 mg/kg + Adagrasib 3 mg/kg, FIG. 11). The “tumor proliferation, three-agent combination with Trametinib and Adagrasib compared with Adagrasib singly or formula (I) + Trametinib” value in experiment [4] (FIG. 6) is listed as “inhibited tumor proliferation in a statistically significant manner”. Further, the “tumor proliferation, three-agent combination with Trametinib and Dabrafenib compared with two-agent Trametinib + Dabrafenib” value in experiment [5] (formula (I) 25.0 mg/kg + Trametinib 0.3 mg/kg + Dabrafenib 30 mg/kg, FIG. 8) is “inhibited tumor proliferation in a statistically significant manner”. Besides, the “tumor proliferation, three-agent combination with Trametinib and Dabrafenib compared with two-agent formula (I) + Trametinib” value in experiment [5] (formula (I) 25.0 mg/kg + Trametinib 0.3 mg/kg + Dabrafenib 30 mg/kg, FIG. 9) is on record as “inhibited tumor proliferation in a statistically significant manner”. In addition, the “antitumor effect, three-agent combination with Trametinib and Adagrasib compared with two-agent formula (I) + Trametinib” value in experiment [6] (setting [9]) is “enhancement tendency”. The “tumor proliferation, three-agent combination with Trametinib and Adagrasib compared with Adagrasib singly” value in experiment [6] (setting [9]) is given as “inhibited tumor proliferation in a statistically significant manner”. In addition, the “antitumor effect, combined use with Trametinib compared with formula (I) or Trametinib administered singly” value in experiment [6] (setting [10]) is given as “tendency to enhance the antitumor effect”. For the same molecule, in experiment [7] (formula (I) 25.0 mg/kg + Trametinib 0.3 mg/kg + Dabrafenib 30 mg/kg, FIG. 14), the “tumor proliferation, three-agent combination with Trametinib and Dabrafenib compared with formula (I) singly or Trametinib + Dabrafenib” value was “inhibited tumor proliferation in a statistically significant manner”. Moreover, the “tumor proliferation, three-agent combination with Trametinib and Dabrafenib compared with Dabrafenib singly or formula (I) + Trametinib” value in experiment [7] (formula (I) 25.0 mg/kg + Trametinib 0.3 mg/kg + Dabrafenib 30 mg/kg, FIG. 15) is “inhibited tumor proliferation in a statistically significant manner”.
